These results are taken from patent US20080177067A1, “Crystal forms of 9-hydroxy-risperidone (paliperidone)” (priority 2006, published 2008).

The nature of data set [1]: Weight loss measured by TGA. The data set is classed as physicochemical.
Data set [2] can be described thus: Water content measured by KF titration. The data set is classed as physicochemical.

Turning to `Cc1nc2n(c(=O)c1CCN1CCC(c3noc4cc(F)ccc34)CC1)CCCC2O` (centres unmarked) [Form II, 3-[2-[4-(6-fluorobenzo[d]isoxazol-3-yl)-1-piperidyl]ethyl]-7-hydroxy-4-methyl-1,5-diazabicyclo[4.4.0]deca-3,5-dien-2-one], in data set [1] (between 25-145° C.), the “weight loss, as measured by TGA” value is recorded as “about 0.4%”. In addition, in data set [2], the “water content, as measured by KF titration” value (“water content, as measured” for short) was “about 0.5%”.

For `Cc1nc2n(c(=O)c1CCN1CCC(c3noc4cc(F)ccc34)CC1)CCCC2O` (centres unmarked) [Form V, 3-[2-[4-(6-fluorobenzo[d]isoxazol-3-yl)-1-piperidyl]ethyl]-7-hydroxy-4-methyl-1,5-diazabicyclo[4.4.0]deca-3,5-dien-2-one], the “weight loss, as measured by TGA” value in data set [1] (between 25-155° C.) is on record as “about 0.1%”. In addition, in data set [2], the “water content, as measured” value is “about 0.3%”.

Turning to `Cc1nc2n(c(=O)c1CCN1CCC(c3noc4cc(F)ccc34)CC1)CCCC2O` (centres unmarked) [Form I, 3-[2-[4-(6-fluorobenzo[d]isoxazol-3-yl)-1-piperidyl]ethyl]-7-hydroxy-4-methyl-1,5-diazabicyclo[4.4.0]deca-3,5-dien-2-one], the “weight loss, as measured by TGA” value in data set [1] (between 25-168° C.) is listed as “about 0.6%”. Further, the “water content, as measured” value in data set [2] is “about 0.5%”.

Take `Cc1nc2n(c(=O)c1CCN1CCC(c3noc4cc(F)ccc34)CC1)CCCC2O` (centres unmarked) [Form III, 3-[2-[4-(6-fluorobenzo[d]isoxazol-3-yl)-1-piperidyl]ethyl]-7-hydroxy-4-methyl-1,5-diazabicyclo[4.4.0]deca-3,5-dien-2-one]: the “weight loss, as measured by TGA” value in data set [1] (between 25-168° C.) is listed as “about 19.2%”. Besides, the “water content, as measured” value in data set [2] is given as “about 0.2%”.
